These results are taken from ChEMBL document CHEMBL5325394, “What We Have Gained from Ibogaine: α3β4 Nicotinic Acetylcholine Receptor Inhibitors as Treatments for Substance Use Disorders” (J Med Chem, 2023).

Assay [1] has as its target T1, Neuronal acetylcholine receptor; alpha3/beta4 (Homo sapiens, UniProt P30926+P32297). In words: Displacement of [3H]Ibogaine from human alpha3beta4 nAChRs expressed in HEK293 cells assessed as inhibition constant incubated for 2 hrs by scintillation counter analysis. The format is cell-based.
Another assay deals with Mu-type opioid receptor (Bos taurus, UniProt P79350). In words: Displacement of [3H]-DAGO from calf cortex MOR receptor assessed as inhibition constant. Format: tissue-based.
Assay [2] can be described thus: Displacement of [3H]-GR-65,630 from 5-HT3 receptor in mouse NG-108 cells assessed as inhibition constant. The format is cell-based. Conditions: ng-108 cell. In general terms: Displacement assays read how much labelled ligand stays bound in the presence of the test substance.
A short description of assay [3]: Displacement of [3H]-BTX-B from bovine cortex sodium channel assessed as inhibition constant. Format: tissue-based, Bos taurus.
A short description of assay [4]: Displacement of [3H]-MK801 from bovine cortex NMDA receptor assessed as inhibition constant. Format: tissue-based, Bos taurus.
For assay [5], the target named is Sigma intracellular receptor 2 (Bos taurus, UniProt Q3MHW7). In words: Displacement of [3H]-DTG from calf hippocampus sigma 2 receptor assessed as inhibition constant. Format: tissue-based.
Assay [6] can be described thus: Displacement of [3H]-paroxetine from bovine brain stem 5-HT receptor assessed as inhibition constant. The format is tissue-based, Bos taurus, Brainstem.
Assay [7] addresses T2, Muscarinic acetylcholine receptor M1 (Bos taurus, UniProt Q8WMX0).
T2 sequence (Q8WMX0 whole entry): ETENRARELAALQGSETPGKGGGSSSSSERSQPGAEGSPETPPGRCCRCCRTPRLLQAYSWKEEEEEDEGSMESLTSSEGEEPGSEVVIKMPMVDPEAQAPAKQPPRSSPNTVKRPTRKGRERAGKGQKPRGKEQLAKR
In words: Displacement of [3H]-pirenzepine from calf cortex Muscarinic M1 receptor assessed as inhibition constant. The format is tissue-based.

Assay [8] has as its target T3, Neuronal acetylcholine receptor; alpha4/beta2 (Homo sapiens, UniProt P17787+P43681). In words: Antagonist activity at alpha4beta2 nAChR in HEK293 cells by voltage-clamp based electrophysiological method. Format: cell-based.
In assay [9] the target is T1, Neuronal acetylcholine receptor; alpha3/beta4. In words: Antagonist activity at recombinant alpha3beta4 nAChR in HEK293 cells by voltage-clamp based electrophysiological method. The format is cell-based.
A short description of assay [10]: Displacement of [3H]-DPDPE from calf caudate nucleus DOR receptor assessed as inhibition constant. The format is tissue-based, Bos taurus.
For assay [11], the target named is T4, Neuronal acetylcholine receptor; alpha4/beta2 (Rattus norvegicus, UniProt P09483+P12390). In words: Antagonist activity at rat alpha4beta2 nACh receptor expressed in Xenopus oocyte by voltage-clamp based electrophysiological assay. Format: cell-based.
The target of assay [12] is Neuronal acetylcholine receptor; alpha3/beta4 (Rattus norvegicus, UniProt P04757+P12392). In words: Antagonist activity at rat alpha3beta4 nACh receptor expressed in Xenopus oocyte by voltage-clamp based electrophysiological assay. The format is cell-based.
The target in assay [13] is T5, Neuronal acetylcholine receptor subunit alpha-7 (Homo sapiens, UniProt P36544). In words: Antagonist activity at human alpha7 nACh receptor expressed in Xenopus oocyte by voltage-clamp based electrophysiological assay. The format is cell-based.
The target in assay [14] is Neuronal acetylcholine receptor; alpha3/beta2 (Rattus norvegicus, UniProt P04757+P12390). In words: Antagonist activity at rat alpha3beta2 nACh receptor expressed in Xenopus oocyte by voltage-clamp based electrophysiological assay. The format is cell-based.
In assay [15] the target is T3, Neuronal acetylcholine receptor; alpha4/beta2. In words: Antagonist activity at alpha4beta2 nAChRs (unknown origin) assessed as inhibition constant. Format: protein-complex assay.
The target in assay [16] is T5, Neuronal acetylcholine receptor subunit alpha-7. In words: Antagonist activity at alpha7 nAChRs (unknown origin) assessed as inhibition constant.
Assay [17] addresses T1, Neuronal acetylcholine receptor; alpha3/beta4. In words: Partial agonist activity at alpha3beta4 nAChR in HEK293 cells assessed as reduction in Ca+2 influx by FLIPR assy. Format: cell-based.
Assay [18] deals with T3, Neuronal acetylcholine receptor; alpha4/beta2. In words: Partial agonist activity at alpha4beta2 nAChR in HEK293 cells assessed as reduction in Ca+2 influx by FLIPR assy. Format: cell-based.
Assay [19] shares this target. In words: Antagonist activity at alpha4beta2 nAChR (unknown origin). Format: protein-complex assay.
The target of assay [20] is T6, Muscarinic acetylcholine receptor M5 (Homo sapiens, UniProt P08912).
T6 sequence (P08912 whole entry): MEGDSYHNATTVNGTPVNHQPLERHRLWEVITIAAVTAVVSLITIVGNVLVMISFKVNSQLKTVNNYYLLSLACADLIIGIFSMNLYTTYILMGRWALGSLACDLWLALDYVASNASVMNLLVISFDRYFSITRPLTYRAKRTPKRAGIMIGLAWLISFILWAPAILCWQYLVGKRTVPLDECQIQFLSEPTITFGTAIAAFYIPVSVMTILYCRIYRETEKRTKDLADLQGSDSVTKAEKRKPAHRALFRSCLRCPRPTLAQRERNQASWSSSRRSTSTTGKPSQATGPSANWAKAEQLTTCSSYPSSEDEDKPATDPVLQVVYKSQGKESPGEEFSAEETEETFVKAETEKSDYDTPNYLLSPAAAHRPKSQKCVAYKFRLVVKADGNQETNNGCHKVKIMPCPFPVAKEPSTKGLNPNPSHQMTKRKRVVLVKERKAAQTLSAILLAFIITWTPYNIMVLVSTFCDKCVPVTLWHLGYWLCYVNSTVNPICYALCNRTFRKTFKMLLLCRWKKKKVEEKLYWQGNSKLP
In words: Antagonist activity at muscarinic M5 receptor (unknown origin). The format is functional.

In assay [21] the target is Neuronal acetylcholine receptor subunit alpha-7 (Rattus norvegicus, UniProt Q05941). In words: Binding affinity to rat alpha7 nAChR expressed in HEK cells assessed as inhibition constant measured after 2 hrs in the presence of [3H]epibatidine. Format: cell-based.
A further assay deals with Histamine H1 receptor (Homo sapiens, UniProt P35367). In words: Antagonist activity at H1 receptor (unknown origin).
For assay [22], the target named is Sigma intracellular receptor 2 (Homo sapiens, UniProt Q5BJF2). In words: Antagonist activity at sigma 2 receptor (unknown origin).
Assay [23] concerns the target Serotonin 3 (5-HT3) receptor. In words: Antagonist activity at 5-HT3 receptor (unknown origin). The format is protein-complex assay, Homo sapiens.
The target of assay [24] is T4, Neuronal acetylcholine receptor; alpha4/beta2. In words: Binding affinity to rat alpha4beta2 nAChR expressed in HEK cells assessed as inhibition constant measured after 2 hrs in the presence of [3H]epibatidine. Format: cell-based.
Assay [25] concerns the target T1, Neuronal acetylcholine receptor; alpha3/beta4. In words: Antagonist activity at nAChR alpha3beta4 in human SH-SY5Y cells assessed as increase in intracellular calcium level preincubated for 10 mins followed by nicotine addition measured after 30 mins by FLIPR assay. The format is cell-based. A general note: A change in cytosolic calcium serves as a functional read-out for many receptors and channels.

For assay [26], the target named is T5, Neuronal acetylcholine receptor subunit alpha-7. In words: Antagonist activity at nAChR alpha7 in human SH-SY5Y cells assessed as increase in intracellular calcium level preincubated for 10 mins followed by choline addition measured after 30 mins by FLIPR assay. Format: cell-based.

pIC50, pKi: −log10 of the molar value. Where a SMILES comes first, the peptide text is derived from it. Bridges are numbered along the chain shown (N, C = ends).

The pKi is the negative decadic logarithm of the Ki, by convention in mol/L. As a reminder, the pIC50 is the negative decadic logarithm of the IC50, by convention in mol/L.

T3 sequence (P17787 whole entry): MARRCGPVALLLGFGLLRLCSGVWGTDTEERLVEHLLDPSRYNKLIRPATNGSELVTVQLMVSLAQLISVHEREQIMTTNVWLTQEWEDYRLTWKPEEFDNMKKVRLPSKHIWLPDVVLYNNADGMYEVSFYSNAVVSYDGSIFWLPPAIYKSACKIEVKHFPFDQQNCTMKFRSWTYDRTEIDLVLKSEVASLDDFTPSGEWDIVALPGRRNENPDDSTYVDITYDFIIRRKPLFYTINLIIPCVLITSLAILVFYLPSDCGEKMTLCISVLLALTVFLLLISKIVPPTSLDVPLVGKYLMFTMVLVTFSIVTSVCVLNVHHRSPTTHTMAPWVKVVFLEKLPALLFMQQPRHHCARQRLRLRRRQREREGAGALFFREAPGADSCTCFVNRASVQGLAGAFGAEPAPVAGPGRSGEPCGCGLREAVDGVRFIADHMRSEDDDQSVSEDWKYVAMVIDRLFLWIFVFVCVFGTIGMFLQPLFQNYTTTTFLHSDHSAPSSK
T3 sequence (P43681 whole entry): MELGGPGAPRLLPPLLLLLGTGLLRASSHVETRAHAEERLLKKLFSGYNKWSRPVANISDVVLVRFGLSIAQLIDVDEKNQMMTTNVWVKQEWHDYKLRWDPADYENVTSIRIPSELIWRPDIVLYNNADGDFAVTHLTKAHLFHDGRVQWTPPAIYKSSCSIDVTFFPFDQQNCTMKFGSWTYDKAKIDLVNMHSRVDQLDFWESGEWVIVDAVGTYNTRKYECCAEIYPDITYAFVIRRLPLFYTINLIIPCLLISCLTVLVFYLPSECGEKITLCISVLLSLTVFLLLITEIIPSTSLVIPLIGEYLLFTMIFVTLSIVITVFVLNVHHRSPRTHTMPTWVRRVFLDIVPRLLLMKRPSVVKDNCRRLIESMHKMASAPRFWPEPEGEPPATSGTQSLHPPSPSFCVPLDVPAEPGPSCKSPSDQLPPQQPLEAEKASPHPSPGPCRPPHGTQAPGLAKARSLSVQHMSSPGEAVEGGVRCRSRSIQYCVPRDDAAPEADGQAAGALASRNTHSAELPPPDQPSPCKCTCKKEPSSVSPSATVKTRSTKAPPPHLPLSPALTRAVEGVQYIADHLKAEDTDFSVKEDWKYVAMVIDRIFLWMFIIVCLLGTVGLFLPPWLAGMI
T5 sequence (P36544 whole entry): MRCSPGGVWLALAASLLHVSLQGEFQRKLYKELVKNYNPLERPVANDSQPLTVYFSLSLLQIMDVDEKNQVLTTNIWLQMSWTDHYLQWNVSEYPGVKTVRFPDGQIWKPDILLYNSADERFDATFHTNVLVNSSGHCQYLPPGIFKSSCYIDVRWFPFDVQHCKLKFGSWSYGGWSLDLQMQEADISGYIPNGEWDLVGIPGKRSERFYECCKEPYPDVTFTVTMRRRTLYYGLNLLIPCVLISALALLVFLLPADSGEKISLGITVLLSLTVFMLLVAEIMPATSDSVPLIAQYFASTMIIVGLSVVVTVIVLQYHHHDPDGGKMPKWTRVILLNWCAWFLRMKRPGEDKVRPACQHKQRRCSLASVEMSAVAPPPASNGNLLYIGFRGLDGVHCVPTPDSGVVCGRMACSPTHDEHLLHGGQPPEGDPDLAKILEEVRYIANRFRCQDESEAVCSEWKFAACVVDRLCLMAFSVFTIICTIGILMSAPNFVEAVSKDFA
T1 sequence (P30926 whole entry): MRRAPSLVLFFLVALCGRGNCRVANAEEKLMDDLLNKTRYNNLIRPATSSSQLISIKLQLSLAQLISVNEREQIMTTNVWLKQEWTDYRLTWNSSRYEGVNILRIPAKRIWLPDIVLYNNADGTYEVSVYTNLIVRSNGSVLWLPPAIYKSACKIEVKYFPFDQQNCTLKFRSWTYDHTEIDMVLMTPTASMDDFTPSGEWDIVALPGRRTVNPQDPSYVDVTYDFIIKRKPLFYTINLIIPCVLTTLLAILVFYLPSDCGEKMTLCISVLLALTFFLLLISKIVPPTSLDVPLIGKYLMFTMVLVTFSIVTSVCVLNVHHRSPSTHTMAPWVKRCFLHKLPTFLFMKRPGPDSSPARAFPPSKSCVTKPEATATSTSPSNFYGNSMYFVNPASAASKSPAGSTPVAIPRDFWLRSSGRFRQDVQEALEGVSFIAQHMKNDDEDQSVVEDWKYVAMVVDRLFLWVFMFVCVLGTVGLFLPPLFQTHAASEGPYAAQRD
T1 sequence (P32297 whole entry): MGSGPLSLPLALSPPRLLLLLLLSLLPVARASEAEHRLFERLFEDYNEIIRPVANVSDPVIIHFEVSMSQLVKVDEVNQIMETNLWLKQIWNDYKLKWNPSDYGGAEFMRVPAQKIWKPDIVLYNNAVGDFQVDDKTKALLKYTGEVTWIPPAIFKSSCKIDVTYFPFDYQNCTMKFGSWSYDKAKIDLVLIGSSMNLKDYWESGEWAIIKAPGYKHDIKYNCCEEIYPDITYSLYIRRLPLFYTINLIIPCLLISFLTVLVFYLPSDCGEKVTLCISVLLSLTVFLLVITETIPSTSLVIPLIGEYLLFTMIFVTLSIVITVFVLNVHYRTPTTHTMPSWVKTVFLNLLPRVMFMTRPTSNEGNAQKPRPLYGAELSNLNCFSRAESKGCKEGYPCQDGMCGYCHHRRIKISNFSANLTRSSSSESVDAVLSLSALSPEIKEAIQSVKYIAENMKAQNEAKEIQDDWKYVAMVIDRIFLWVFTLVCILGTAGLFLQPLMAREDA
T4 sequence (P09483 whole entry): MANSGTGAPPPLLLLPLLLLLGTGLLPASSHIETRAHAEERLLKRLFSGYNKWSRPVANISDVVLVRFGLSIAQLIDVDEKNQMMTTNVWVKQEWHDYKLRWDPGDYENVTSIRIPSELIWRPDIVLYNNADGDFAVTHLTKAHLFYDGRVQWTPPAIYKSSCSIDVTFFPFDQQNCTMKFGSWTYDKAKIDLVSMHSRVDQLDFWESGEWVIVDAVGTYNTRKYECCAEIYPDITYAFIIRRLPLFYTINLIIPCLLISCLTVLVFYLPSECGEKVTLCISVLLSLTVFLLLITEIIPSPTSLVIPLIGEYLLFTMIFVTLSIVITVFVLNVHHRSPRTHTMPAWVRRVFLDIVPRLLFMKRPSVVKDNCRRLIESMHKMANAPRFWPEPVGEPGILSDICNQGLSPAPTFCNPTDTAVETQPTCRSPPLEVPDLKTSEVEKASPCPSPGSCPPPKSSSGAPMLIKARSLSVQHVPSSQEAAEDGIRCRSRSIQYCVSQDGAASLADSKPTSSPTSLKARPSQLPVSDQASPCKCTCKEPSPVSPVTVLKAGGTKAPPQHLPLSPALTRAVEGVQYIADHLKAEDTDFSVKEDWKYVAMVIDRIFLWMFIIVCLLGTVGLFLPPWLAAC
T4 sequence (P12390 whole entry): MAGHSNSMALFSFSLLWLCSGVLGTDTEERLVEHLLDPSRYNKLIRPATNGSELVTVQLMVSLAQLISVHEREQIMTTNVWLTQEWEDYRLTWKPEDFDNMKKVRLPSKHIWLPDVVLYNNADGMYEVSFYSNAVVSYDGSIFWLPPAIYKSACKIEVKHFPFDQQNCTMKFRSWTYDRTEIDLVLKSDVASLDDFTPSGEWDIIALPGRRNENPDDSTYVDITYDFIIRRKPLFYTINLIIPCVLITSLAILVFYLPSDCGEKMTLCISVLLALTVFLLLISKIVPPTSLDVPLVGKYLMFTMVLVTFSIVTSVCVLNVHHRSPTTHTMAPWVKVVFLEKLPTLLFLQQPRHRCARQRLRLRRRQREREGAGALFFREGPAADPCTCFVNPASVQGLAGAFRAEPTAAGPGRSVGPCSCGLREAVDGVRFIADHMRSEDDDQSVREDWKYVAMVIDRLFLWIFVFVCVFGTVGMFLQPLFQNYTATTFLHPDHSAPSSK
Sequence of Neuronal acetylcholine receptor; alpha3/beta4 (Rattus norvegicus, UniProt P04757+P12392) (P04757 whole entry): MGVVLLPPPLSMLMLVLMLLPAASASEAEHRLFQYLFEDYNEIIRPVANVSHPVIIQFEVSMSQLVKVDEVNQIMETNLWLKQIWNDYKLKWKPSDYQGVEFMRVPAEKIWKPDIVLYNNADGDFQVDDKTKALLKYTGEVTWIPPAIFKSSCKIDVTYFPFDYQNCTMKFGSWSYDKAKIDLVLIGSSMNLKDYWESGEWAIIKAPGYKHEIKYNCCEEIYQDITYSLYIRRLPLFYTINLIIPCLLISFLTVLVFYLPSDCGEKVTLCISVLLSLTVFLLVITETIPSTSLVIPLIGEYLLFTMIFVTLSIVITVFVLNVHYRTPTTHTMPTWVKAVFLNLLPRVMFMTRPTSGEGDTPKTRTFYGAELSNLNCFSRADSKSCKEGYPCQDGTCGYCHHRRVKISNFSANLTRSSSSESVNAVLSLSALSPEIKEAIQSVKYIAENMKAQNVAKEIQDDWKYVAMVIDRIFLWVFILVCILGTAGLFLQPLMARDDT
Sequence of Neuronal acetylcholine receptor; alpha3/beta4 (Rattus norvegicus, UniProt P04757+P12392) (P12392 whole entry): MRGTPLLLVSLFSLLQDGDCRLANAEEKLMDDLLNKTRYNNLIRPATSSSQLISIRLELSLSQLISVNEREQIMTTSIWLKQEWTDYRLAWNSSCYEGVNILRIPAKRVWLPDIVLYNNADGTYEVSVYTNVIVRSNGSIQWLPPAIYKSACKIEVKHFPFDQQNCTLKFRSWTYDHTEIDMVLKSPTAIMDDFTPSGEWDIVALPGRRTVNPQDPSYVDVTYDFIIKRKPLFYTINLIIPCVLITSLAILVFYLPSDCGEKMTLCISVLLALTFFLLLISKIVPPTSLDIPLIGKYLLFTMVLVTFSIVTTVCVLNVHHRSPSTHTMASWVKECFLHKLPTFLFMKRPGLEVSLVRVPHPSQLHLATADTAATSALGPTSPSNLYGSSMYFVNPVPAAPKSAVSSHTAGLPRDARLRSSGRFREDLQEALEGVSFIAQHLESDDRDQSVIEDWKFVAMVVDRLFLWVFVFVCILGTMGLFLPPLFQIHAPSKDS
Sequence of Neuronal acetylcholine receptor; alpha3/beta2 (P04757 whole entry): as the sequence (P04757 whole entry) above
Sequence of Neuronal acetylcholine receptor; alpha3/beta2 (P12390 whole entry): as the sequence (P12390 whole entry) above

Consider `CC[C@H]1C[C@@H]2C[C@H]3c4[nH]c5ccc(OC)cc5c4CC[N@@](C2)[C@@H]13`, for which the pKi in [1] is 8.98; on Mu-type opioid receptor, 8.70; in [2], 8.59; in assay [3], 8.44; in assay [4] it was 8.51; in assay [5] it was 9.40. Besides, the values for the negative logarithm of the Ki (pKi) in assay [6], in assay [7] and in assay [10] were 8.39, 7.80 and below 8.00, respectively. The pIC50 in [8] is 6.00; in assay [9] it was 6.66.
As for `CC[C@H](C)[C@H](NC(=O)[C@H](Cc1cnc[nH]1)NC(=O)[C@@H]1CCCN1C(=O)[C@H](CC(N)=O)NC(=O)[C@H](CC(N)=O)NC(=O)[C@@H](NC(=O)[C@H](CC(N)=O)NC(=O)[C@H](CS)NC(=O)[C@H](C)NC(=O)[C@@H]1CCCN1C(=O)[C@H](Cc1cnc[nH]1)NC(=O)[C@H](CO)NC(=O)[C@H](CS)NC(=O)[C@H](CS)NC(=O)CN)C(C)C)C(=O)N[C@@H](CS)C(=O)O` (H-GCCSHPACNVNNPHIC-OH), the pIC50 in [11] is below 4.00; in assay [12], 7.01; in assay [13], 6.99; in assay [14], 7.48.
As for `CNC1(C)[C@H]2CC[C@H](C2)C1(C)C` (mixture of isomers), the pKi in assay [15] was 5.60; in assay [16] it was 5.16.
As for `FC(F)(F)c1ccc2c(c1)[C@@H]1CNC[C@H]2C1`, the negative logarithm of the IC50 (pIC50) in [17] was 6.59; in [18] it was 6.96.
Turning to `CN1C2CCCC1CC(Nc1ccccc1Br)C2` (stereo not drawn), the pIC50 in assay [19] was 6.52; in assay [20] it was 6.49; on Histamine H1 receptor, 6.70; in assay [22] it was 6.38; in assay [23] it was 6.22. The pKi in assay [21] was 6.65; in [24], 6.32.
For `CC[C@H](C)[C@@H]1NC(=O)[C@H](CC(N)=O)NC(=O)[C@@H]2CCCN2C(=O)[C@H](CC(N)=O)NC(=O)[C@H](CC(C)C)NC(=O)[C@H](C(C)C)NC(=O)[C@H](CCCNC(=N)N)NC(=O)[C@@H]2CSSC[C@H](NC(=O)CNC(=O)[C@@H](N)CO)C(=O)N[C@@H](CSSC[C@@H](C(=O)O)NC1=O)C(=O)N[C@@H](CO)C(=O)N[C@@H](CC(N)=O)C(=O)N1CCC[C@H]1C(=O)N[C@@H](C)C(=O)N2` (H-SGCCSNPACRVLNPNIC-OH; disulfide 3-9, 4-17), the pIC50 in [25] is 6.20; in assay [26], 5.59.
